Measured values published in ChEMBL document CHEMBL5325423, “Discovery of 7H-Pyrrolo[2,3-d]pyrimidine Derivatives as potent hematopoietic progenitor kinase 1 (HPK1) inhibitors” (Eur J Med Chem, 2023).

How the values were obtained:
[1] = biological target: T1, Mitogen-activated protein kinase kinase kinase kinase 1 (Homo sapiens, UniProt Q92918); experiment: Inhibition of human HPK1 using myelin basic protein and [gamma33P]ATP as substrate incubated for 40 mins in presence of Mg/ATP by radiometric scintillation counting analysis
T1 sequence (Q92918 whole entry): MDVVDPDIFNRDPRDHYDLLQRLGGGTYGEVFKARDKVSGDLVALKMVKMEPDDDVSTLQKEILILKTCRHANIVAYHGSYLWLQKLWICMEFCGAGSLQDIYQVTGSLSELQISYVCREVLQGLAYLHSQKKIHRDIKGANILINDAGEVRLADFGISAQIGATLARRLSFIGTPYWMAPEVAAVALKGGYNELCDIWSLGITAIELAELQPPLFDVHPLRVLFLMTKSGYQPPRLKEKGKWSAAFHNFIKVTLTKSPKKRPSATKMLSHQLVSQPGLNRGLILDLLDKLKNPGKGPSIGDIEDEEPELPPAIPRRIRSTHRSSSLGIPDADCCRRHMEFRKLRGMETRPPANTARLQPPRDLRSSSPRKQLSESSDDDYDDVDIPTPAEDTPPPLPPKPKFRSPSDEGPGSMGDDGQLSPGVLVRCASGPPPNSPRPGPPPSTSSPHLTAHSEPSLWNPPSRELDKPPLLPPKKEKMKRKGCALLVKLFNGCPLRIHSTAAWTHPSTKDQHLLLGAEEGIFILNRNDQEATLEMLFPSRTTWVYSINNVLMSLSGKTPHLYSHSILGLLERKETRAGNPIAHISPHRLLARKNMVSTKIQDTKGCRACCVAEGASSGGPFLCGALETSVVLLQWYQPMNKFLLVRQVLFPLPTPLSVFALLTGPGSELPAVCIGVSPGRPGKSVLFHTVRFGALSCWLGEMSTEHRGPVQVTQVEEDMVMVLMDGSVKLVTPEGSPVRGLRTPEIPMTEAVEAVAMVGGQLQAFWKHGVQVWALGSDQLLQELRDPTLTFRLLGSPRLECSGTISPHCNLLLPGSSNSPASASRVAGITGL

[2] = biological target: T1, Mitogen-activated protein kinase kinase kinase kinase 1; experiment: Inhibition of wild type HPK1 (unknown origin) using FAM-FPQAAsLPPYFAKKK peptide as substrate in presence of ATP by caliper assay
[3] = biological target: T1, Mitogen-activated protein kinase kinase kinase kinase 1; experiment: Inhibition of human HPK1 in anti-human CD3 stimulated human Jurkat T cells assessed as inhibition of SLP76 phosphorylation preincubated for 10 mins followed by anti-human CD3 stimulation and measured after 60 mins by Western blot analysis; type: cell-based
[4] = biological target: Mitogen-activated protein kinase 8 (Homo sapiens) (UniProt P45983); experiment: Inhibition of JNK1 (unknown origin) assessed as remaining activity at 1 uM relative to control
[5] = biological target: T1, Mitogen-activated protein kinase kinase kinase kinase 1; experiment: Inhibition of human HPK1 in human Jurkat T cells assessed as increase in anti-human CD3 stimulated IL-2 secretion preincubated for 10 mins followed by anti-human CD3 stimulation and measured after 24 hrs by ELISA; type: cell-based
[6] = biological target: Focal adhesion kinase 1 (Homo sapiens) (UniProt Q05397); experiment: Inhibition of FAK (unknown origin) assessed as remaining activity at 1 uM relative to control
[7] = biological target: Interleukin-1 receptor-associated kinase 4 (Homo sapiens) (UniProt Q9NWZ3); experiment: Inhibition of IRAK4 (unknown origin) at 1 uM
[8] = biological target: ALK tyrosine kinase receptor (Homo sapiens) (UniProt Q9UM73); experiment: Inhibition of ALK (unknown origin) at 1 uM
ALK tyrosine kinase receptor (Homo sapiens), sequence (Q9UM73 19-1620 limits assumed): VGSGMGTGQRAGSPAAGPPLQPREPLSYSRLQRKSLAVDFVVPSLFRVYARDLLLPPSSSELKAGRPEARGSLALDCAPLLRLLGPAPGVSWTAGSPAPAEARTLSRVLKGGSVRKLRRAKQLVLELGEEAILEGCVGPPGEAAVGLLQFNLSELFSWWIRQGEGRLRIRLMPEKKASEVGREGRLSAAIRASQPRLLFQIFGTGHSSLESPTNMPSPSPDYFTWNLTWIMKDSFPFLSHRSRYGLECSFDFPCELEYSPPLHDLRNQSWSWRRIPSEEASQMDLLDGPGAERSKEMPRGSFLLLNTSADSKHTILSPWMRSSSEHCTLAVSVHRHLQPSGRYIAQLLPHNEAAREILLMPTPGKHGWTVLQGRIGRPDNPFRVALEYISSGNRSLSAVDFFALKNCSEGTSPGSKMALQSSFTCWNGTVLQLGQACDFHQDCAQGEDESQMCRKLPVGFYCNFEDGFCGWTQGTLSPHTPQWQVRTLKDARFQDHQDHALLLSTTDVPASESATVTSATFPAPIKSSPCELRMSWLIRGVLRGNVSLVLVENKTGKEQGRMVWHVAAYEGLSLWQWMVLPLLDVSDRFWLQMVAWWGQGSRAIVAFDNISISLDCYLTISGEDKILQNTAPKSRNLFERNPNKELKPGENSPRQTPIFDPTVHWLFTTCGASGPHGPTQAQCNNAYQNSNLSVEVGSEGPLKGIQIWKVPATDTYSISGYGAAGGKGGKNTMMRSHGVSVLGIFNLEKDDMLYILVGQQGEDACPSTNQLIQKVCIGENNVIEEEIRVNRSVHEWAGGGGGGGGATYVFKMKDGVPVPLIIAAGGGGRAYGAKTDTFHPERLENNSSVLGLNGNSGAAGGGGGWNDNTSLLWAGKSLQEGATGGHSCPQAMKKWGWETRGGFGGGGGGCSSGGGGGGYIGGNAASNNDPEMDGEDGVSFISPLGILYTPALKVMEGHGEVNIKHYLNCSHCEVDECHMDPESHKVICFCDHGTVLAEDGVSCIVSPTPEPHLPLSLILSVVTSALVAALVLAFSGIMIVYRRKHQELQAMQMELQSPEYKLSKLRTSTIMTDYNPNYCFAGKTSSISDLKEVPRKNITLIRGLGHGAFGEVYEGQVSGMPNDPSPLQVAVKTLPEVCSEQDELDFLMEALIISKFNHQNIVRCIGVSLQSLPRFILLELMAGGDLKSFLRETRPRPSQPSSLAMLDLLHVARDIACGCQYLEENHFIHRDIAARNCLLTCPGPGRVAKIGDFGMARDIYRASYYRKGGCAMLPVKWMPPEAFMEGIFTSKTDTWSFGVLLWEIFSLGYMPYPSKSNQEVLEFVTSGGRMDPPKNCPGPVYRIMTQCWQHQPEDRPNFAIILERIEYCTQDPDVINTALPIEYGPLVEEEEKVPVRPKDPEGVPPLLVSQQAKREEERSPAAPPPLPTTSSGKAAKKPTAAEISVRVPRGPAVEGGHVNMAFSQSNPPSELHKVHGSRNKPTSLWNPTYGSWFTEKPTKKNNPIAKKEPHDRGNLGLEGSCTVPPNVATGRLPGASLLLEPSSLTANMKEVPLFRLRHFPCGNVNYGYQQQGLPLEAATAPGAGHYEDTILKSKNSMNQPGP

[9] = biological target: Tyrosine-protein kinase JAK2 (Homo sapiens) (UniProt O60674); experiment: Inhibition of JAK2 (unknown origin) assessed as remaining activity at 1 uM relative to control
[10] = biological target: Epidermal growth factor receptor (Homo sapiens) (UniProt P00533); experiment: Inhibition of EGFR (unknown origin) assessed as remaining activity at 1 uM relative to control
[11] = biological target: Tyrosine-protein kinase ABL1 (Homo sapiens) (UniProt P00519); experiment: Inhibition of ABL (unknown origin) assessed as remaining activity at 1 uM relative to control
[12] = biological target: Leucine-rich repeat serine/threonine-protein kinase 2 (Homo sapiens) (UniProt Q5S007); experiment: Inhibition of LRRK2 (unknown origin) assessed as remaining activity at 1 uM relative to control
Leucine-rich repeat serine/threonine-protein kinase 2 (Homo sapiens), sequence (Q5S007 whole entry): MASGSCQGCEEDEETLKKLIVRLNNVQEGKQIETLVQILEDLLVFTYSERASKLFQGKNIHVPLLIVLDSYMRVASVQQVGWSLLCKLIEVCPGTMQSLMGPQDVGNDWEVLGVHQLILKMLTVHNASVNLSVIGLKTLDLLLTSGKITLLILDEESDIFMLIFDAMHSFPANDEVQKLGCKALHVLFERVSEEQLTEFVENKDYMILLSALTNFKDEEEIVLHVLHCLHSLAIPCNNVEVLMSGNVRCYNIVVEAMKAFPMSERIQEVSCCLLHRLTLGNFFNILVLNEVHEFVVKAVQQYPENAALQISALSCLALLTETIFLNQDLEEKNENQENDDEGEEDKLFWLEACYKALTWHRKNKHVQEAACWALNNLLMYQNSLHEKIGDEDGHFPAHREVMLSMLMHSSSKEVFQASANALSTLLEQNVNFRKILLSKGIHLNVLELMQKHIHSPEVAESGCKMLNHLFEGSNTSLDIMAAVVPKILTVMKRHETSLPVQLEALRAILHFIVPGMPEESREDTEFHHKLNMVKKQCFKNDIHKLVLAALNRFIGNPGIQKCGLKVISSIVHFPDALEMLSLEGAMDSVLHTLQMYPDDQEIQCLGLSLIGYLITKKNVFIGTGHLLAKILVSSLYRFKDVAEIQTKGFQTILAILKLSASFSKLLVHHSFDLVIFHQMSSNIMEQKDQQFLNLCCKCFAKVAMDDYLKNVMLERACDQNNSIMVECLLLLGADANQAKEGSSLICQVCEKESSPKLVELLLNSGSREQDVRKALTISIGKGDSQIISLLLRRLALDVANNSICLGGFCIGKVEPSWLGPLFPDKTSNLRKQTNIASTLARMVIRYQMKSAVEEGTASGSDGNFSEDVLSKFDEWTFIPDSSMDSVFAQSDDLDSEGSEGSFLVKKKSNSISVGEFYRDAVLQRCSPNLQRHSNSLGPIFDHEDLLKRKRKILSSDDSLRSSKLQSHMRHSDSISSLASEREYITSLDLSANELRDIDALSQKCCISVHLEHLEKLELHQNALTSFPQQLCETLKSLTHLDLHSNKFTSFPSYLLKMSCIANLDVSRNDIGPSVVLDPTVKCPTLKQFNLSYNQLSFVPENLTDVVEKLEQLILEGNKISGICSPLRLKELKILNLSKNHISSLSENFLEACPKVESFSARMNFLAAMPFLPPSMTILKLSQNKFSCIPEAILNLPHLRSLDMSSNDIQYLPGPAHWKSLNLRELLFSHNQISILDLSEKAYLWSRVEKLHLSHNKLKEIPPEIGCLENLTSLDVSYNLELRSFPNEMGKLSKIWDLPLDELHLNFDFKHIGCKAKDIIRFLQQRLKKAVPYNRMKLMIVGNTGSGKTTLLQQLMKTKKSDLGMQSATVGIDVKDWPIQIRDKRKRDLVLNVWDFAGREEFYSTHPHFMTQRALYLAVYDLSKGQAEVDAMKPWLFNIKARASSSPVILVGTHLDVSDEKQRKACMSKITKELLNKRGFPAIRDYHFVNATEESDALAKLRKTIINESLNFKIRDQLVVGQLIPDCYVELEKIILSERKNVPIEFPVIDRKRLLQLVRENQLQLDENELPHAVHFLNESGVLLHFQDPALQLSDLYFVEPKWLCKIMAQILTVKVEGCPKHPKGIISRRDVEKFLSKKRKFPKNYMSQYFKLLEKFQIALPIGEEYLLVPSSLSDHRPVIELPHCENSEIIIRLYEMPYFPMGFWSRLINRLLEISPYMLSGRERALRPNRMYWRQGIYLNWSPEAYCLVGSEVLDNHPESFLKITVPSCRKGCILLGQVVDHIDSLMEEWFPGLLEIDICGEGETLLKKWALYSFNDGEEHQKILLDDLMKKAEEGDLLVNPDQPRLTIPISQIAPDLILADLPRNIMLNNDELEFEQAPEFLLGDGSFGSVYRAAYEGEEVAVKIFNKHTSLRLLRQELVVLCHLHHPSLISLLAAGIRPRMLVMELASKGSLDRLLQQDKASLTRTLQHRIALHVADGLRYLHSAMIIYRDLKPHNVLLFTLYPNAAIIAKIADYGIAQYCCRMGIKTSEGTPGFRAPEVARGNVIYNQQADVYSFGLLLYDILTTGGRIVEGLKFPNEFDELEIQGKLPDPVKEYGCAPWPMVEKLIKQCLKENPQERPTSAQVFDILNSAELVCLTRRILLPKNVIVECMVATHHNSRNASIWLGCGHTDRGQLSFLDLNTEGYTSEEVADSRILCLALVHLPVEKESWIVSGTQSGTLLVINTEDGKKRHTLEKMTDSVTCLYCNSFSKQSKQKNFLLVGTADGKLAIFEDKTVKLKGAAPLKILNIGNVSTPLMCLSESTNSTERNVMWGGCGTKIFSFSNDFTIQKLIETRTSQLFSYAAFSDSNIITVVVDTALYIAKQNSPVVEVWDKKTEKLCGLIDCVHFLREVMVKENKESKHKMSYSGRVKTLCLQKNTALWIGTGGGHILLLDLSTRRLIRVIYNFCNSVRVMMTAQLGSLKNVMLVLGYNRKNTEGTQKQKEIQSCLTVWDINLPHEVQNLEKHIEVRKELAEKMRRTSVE

[13] = biological target: Tyrosine-protein kinase ZAP-70 (Homo sapiens) (UniProt P43403); experiment: Inhibition of ZAP70 (unknown origin) assessed as remaining activity at 1 uM relative to control
[14] = biological target: Serine/threonine-protein kinase PAK 4 (Homo sapiens) (UniProt O96013); experiment: Inhibition of PAK4 (unknown origin) assessed as remaining activity at 1 uM relative to control
[15] = biological target: Tyrosine-protein kinase Lck (Homo sapiens) (UniProt P06239); experiment: Inhibition of LCK (unknown origin) assessed as remaining activity at 1 uM relative to control
[16] = biological target: Tyrosine-protein kinase Fyn (Homo sapiens) (UniProt P06241); experiment: Inhibition of FYN (unknown origin) assessed as remaining activity at 1 uM relative to control
[17] = biological target: Mitogen-activated protein kinase 9 (Homo sapiens) (UniProt P45984); experiment: Inhibition of JNK2 (unknown origin) assessed as remaining activity at 1 uM relative to control
[18] = biological target: Leucine-rich repeat serine/threonine-protein kinase 2 (Homo sapiens) (UniProt Q5S007); experiment: Inhibition of LRRK2 (unknown origin) at 1 uM
[19] = biological target: Insulin-like growth factor 1 receptor (Homo sapiens) (UniProt P08069); experiment: Inhibition of IGF-1R (unknown origin) assessed as remaining activity at 1 uM relative to control
[20] = biological target: Tyrosine-protein kinase SYK (Homo sapiens) (UniProt P43405); experiment: Inhibition of SYK (unknown origin) assessed as remaining activity at 1 uM relative to control
[21] = biological target: Tyrosine-protein kinase BTK (Homo sapiens) (UniProt Q06187); experiment: Inhibition of BTK (unknown origin) assessed as remaining activity at 1 uM relative to control
[22] = biological target: Dual specificity protein kinase TTK (Homo sapiens) (UniProt P33981); experiment: Inhibition of TTK (unknown origin) assessed as remaining activity at 1 uM relative to control
[23] = biological target: Receptor-type tyrosine-protein kinase FLT3 (Homo sapiens) (UniProt P36888); experiment: Inhibition of FLT3 (unknown origin) assessed as remaining activity at 1 uM relative to control
[24] = biological target: ALK tyrosine kinase receptor (Homo sapiens) (UniProt Q9UM73); experiment: Inhibition of ALK (unknown origin) assessed as remaining activity at 1 uM relative to control
[25] = biological target: Interleukin-1 receptor-associated kinase 4 (Homo sapiens) (UniProt Q9NWZ3); experiment: Inhibition of IRAK4 (unknown origin) assessed as remaining activity at 1 uM relative to control
[26] = biological target: Tyrosine-protein kinase JAK3 (Homo sapiens) (UniProt P52333); experiment: Inhibition of JAK3 (unknown origin) assessed as remaining activity at 1 uM relative to control
[27] = biological target: Tyrosine-protein kinase receptor UFO (Homo sapiens) (UniProt P30530); experiment: Inhibition of AXL (unknown origin) assessed as remaining activity at 1 uM relative to control
[28] = biological target: Mitogen-activated protein kinase 10 (Homo sapiens) (UniProt P53779); experiment: Inhibition of JNK3 (unknown origin) assessed as remaining activity at 1 uM relative to control
[29] = biological target: Tyrosine-protein kinase JAK1 (Homo sapiens) (UniProt P23458); experiment: Inhibition of JAK1 (unknown origin) assessed as remaining activity at 1 uM relative to control
[30] = biological target: T1, Mitogen-activated protein kinase kinase kinase kinase 1; experiment: Inhibition of HPK1 (unknown origin)
[31] = biological target: T1, Mitogen-activated protein kinase kinase kinase kinase 1; experiment: Inhibition of human HPK1 in human Jurkat T cells assessed as inhibition of SLP76 phosphorylation

COc1cc2c(cc1Nc1nc(Nc3ccccc3S(=O)(=O)N3CC(C)(C)C3)c3cc[nH]c3n1)CN(C)CC2
IC50 [1]: 12.5 nM

COc1cc2c(cc1Nc1nc(Nc3ccccc3S(=O)(=O)N(C)C)c3c(-c4c(C)noc4C)c[nH]c3n1)CN(C)CC2
IC50 [1]: 42 nM

CN1CCc2ccc(Nc3nc(Nc4ccccc4S(=O)(=O)N(C)C)c4c(-c5cccnc5)c[nH]c4n3)cc2C1
IC50 [1]: 1.5 nM

COc1cc2c(cc1Nc1nc(Nc3ccccc3S(=O)(=O)N3CCCCC3)c3cc[nH]c3n1)CN(C)CC2
IC50 [1]: 17.5 nM

COc1cc2c(cc1Nc1nc(Nc3ccccc3S(=O)(=O)N(C)C)c3c(-c4ccoc4)c[nH]c3n1)CN(C)CC2
IC50 [1]: 4 nM

COc1cc2c(cc1Nc1nc(Nc3ccccc3S(=O)(=O)N(C)C)c3c(-c4cccnc4)c[nH]c3n1)CN(C(C)C)CC2
IC50 [1]: 12 nM

COc1cc2c(cc1Nc1nc(Nc3ccccc3S(=O)(=O)N(C)C)c3c(-c4c[nH]nc4C)c[nH]c3n1)CN(C)CC2
IC50 [1]: 3.5 nM

COc1cc2c(cc1Nc1nc(Nc3ccccc3Cl)c3cc[nH]c3n1)CN(C)CC2
IC50 [1]: 631 nM

COc1cc2c(cc1Nc1nc(Nc3ccccc3S(=O)(=O)N3CCCC3)c3c(-c4cccnc4)c[nH]c3n1)CN(C)CC2
IC50 [1]: 4.5 nM

CCCN(CCC)S(=O)(=O)c1ccccc1Nc1nc(Nc2cc3c(cc2OC)CCN(C)C3)nc2[nH]ccc12
IC50 [1]: 73 nM

COc1cc2c(cc1Nc1nc(Nc3ccccc3C(C)(C)C)c3cc[nH]c3n1)CN(C)CC2
IC50 [1]: 386 nM

COc1cc2c(cc1Nc1nc(Nc3ccccc3S(=O)(=O)N(C)C)c3cc[nH]c3n1)CN(C)CC2
IC50 [1]: 2.5 nM

COc1cc2c(cc1Nc1nc(Nc3ccccc3S(=O)(=O)N3CCOCC3)c3cc[nH]c3n1)CN(C)CC2
IC50 [1]: 349 nM

COc1cc2c(cc1Nc1nc(Nc3ccccc3S(=O)(=O)N(C)C)c3c(-c4ccccc4)c[nH]c3n1)CN(C)CC2
IC50 [1]: > 1000 nM

COc1cc2c(cc1Nc1nc(Nc3ccccc3S(=O)(=O)C(C)C)c3cc[nH]c3n1)CN(C)CC2
IC50 [1]: 4.5 nM

COc1cc(Nc2nc(Nc3ccccc3S(=O)(=O)N(C)C)c3c(-c4cccnc4)c[nH]c3n2)ccc1N1CCOCC1
IC50 [1]: 4.5 nM

COc1cc2c(cc1Nc1nc(Nc3ccccc3OC(C)C)c3cc[nH]c3n1)CN(C)CC2
IC50 [1]: 84 nM

CN1CCc2cc(Nc3nc(Nc4ccccc4S(=O)(=O)N(C)C)c4c(-c5cccnc5)c[nH]c4n3)ccc2C1
IC50 [1]: 6 nM

COc1cc2c(cc1Nc1nc(Nc3ccccc3)c3cc[nH]c3n1)CN(C)CC2
IC50 [1]: 313 nM

COc1cc2c(cc1Nc1nc(Nc3ccccc3S(=O)(=O)N3CCC3)c3cc[nH]c3n1)CN(C)CC2
IC50 [1]: 1 nM

COc1cc2c(cc1Nc1nc(Nc3ccccc3S(=O)(=O)N(C)C)c3c(-c4cnccc4C)c[nH]c3n1)CN(C)CC2
IC50 [1]: 14 nM

CCN(CC)S(=O)(=O)c1ccccc1Nc1nc(Nc2cc3c(cc2OC)CCN(C)C3)nc2[nH]ccc12
IC50 [1]: 7 nM

COc1cc2c(cc1Nc1nc(Nc3ccccc3F)c3cc[nH]c3n1)CN(C)CC2
IC50 [1]: 640 nM

COc1cc2c(cc1Nc1nc(Nc3ccccc3S(=O)(=O)N(C)C)c3c(-c4cn[nH]c4)c[nH]c3n1)CN(C)CC2
IC50 [1]: 3 nM

COc1cc2c(cc1Nc1nc(Nc3ccccc3S(=O)(=O)N3CCC(C)(C)CC3)c3cc[nH]c3n1)CN(C)CC2
IC50 [1]: 356 nM

CCOc1cc(Nc2nc(Nc3ccccc3S(=O)(=O)N(C)C)c3c(-c4cccnc4)c[nH]c3n2)ccc1N1CCOCC1
IC50 [1]: 5.5 nM

COc1cc2c(cc1Nc1nc(Nc3ccccc3OC)c3cc[nH]c3n1)CN(C)CC2
IC50 [1]: 127 nM

COc1ccc(CN(C)C)cc1Nc1nc(Nc2ccccc2S(=O)(=O)N(C)C)c2c(-c3cccnc3)c[nH]c2n1
IC50 [1]: 97.5 nM

COc1cc2c(cc1Nc1ncc(Cl)c(Nc3ccccc3P(C)(C)=O)n1)CN(C)CC2
IC50 [2]: < 5 nM

COc1cc(N2CCOCC2)ccc1Nc1nc(Nc2ccccc2S(=O)(=O)N(C)C)c2c(-c3cccnc3)c[nH]c2n1
IC50 [1]: 781 nM

COc1cc2c(cc1Nc1nc(Nc3ccccc3P(C)(C)=O)c3cc[nH]c3n1)CN(C)CC2
IC50 [1]: 7.5 nM

COc1cc2c(cc1Nc1nc(Nc3ccccc3S(=O)(=O)N(C)C)c3c(-c4ccc(N)nc4)c[nH]c3n1)CN(C)CC2
IC50 [1]: 12 nM

COc1cc2c(cc1Nc1nc(Nc3ccccc3S(=O)(=O)N3CCCC3)c3cc[nH]c3n1)CN(C)CC2
IC50 [1]: 1.5 nM

COc1cc2c(cc1Nc1nc(Nc3ccccc3S(=O)(=O)N3CCC3)c3c(-c4cccnc4)c[nH]c3n1)CN(C)CC2
IC50 [1]: 45 nM

CN1CCc2cc(Cl)c(Nc3nc(Nc4ccccc4S(=O)(=O)N(C)C)c4c(-c5cccnc5)c[nH]c4n3)cc2C1
IC50 [3]: 1210 nM
Activity [4]: > 50%
EC50 [5]: 1390 nM
Activity [6]: < 50%
inhibition [7]: > 90%
inhibition [8]: > 90%
Activity [9]: < 50%
Activity [10]: > 50%
Activity [11]: > 50%
Activity [12]: < 50%
Activity [13]: > 50%
Activity [14]: > 50%
Activity [15]: > 50%
Activity [16]: > 50%
Activity [17]: > 50%
inhibition [18]: > 90%
Activity [19]: > 50%
Activity [20]: > 50%
Activity [21]: > 50%
Activity [22]: < 50%
Activity [23]: < 50%
Activity [24]: < 50%
Activity [25]: < 50%
IC50 [1]: 2 nM
Activity [26]: > 50%
Activity [27]: < 50%
Activity [28]: > 50%
Activity [29]: > 50%

COc1cc2c(cc1Nc1nc(Nc3ccccc3S(=O)(=O)N(C)C)c3c(-c4ccncc4)c[nH]c3n1)CN(C)CC2
IC50 [1]: 9.5 nM

COc1cc2c(cc1Nc1nc(Nc3ccccc3S(=O)(=O)N(C)C)c3c(-c4cccnc4C)c[nH]c3n1)CN(C)CC2
IC50 [1]: 29.5 nM

COc1cc2c(cc1Nc1nc(Nc3ccccc3S(=O)(=O)N(C)C)c3c(-c4ccn(C)c(=O)c4)c[nH]c3n1)CN(C)CC2
IC50 [1]: 9 nM

CN(C)S(=O)(=O)c1ccccc1Nc1nc(Nc2ccc(N3CCOCC3)cc2)nc2[nH]cc(-c3cccnc3)c12
IC50 [1]: 5 nM

COc1cc2c(cc1Nc1nc(Nc3ccccc3C)c3cc[nH]c3n1)CN(C)CC2
IC50 [1]: 454 nM

COc1cc2c(cc1Nc1nc(Nc3ccccc3S(=O)(=O)N(C)C)c3c(-c4cnn(C)c4)c[nH]c3n1)CN(C)CC2
IC50 [1]: 9 nM

Cn1cc(Nc2ncc(C3=CCC[C@@H](NC(=O)c4ccccc4)C3)nc2C(N)=O)cn1
IC50 [30]: 86 nM
IC50 [31]: 150 nM
